Assay results from patent US20210186930A1, “Methods of Treating Renal Disease Associated With Chronic Kidney Disease Such as Alport Syndrome” (UNIVERSITY OF MIAMI, priority 2018, published 2021).
Entries after “also recorded” stand apart in the source; their conditions may differ.

Tests used:
Col4a3−/− mice [1] = assay: Renal cortex lipid content in Col4a3-/- mice (Example 4, FIG. 7); assay type: in vivo, mouse; conditions: treated vs untreated Col4a3−/− mice; ezetimibe 5 mg/kg, ramipril 10 mg/kg, 4 weeks
Description: Determination of cholesterol content in kidney cortex: Tissue from kidney cortexes was homogenized in hypotonic buffer (10 mM HEPES pH7.0, 15 mM KCl, 1 mM MgCl2, 10 mM phosphatase inhibitors). Lipids from 100 μl of the homogenate were extracted with 1 ml of hexane:isopropanol (3:2, v/v), dried and reconstituted in 100 μl of isopropanol-NP40 (9:1, v/v). Tissue fractions not soluble in the organic solvent, were further dried, reconstituted in 8 M urea, and assayed for protein concentration using Pierce BCA protein assay kit (ThermoFisher Scientific, MA, USA). Total cholesterol from lipid extracts was determined by the enzymatic method as previously described (Robinet, P., Wang, Z., Hazen, S. L. & Smith, J. D. A simple and sensitive enzymatic method for cholesterol quantification in macrophages and foam cells. Journal of lipid research 51, 3364-3369, 2010). Briefly, endogenous peroxides present were eliminated by incubating samples and standards with catalase (Sigma-Aldrich, MO, USA), 45 U/ml final concentration, for 15 min at 37° C. […] The plates were incubated at 37° C. for 30 min and fluorescence was read at 530 nm (Ex) and 580 nm (Em) in a plate reader (SpectraMax M5, Molecular Devices, CA, USA). Cholesteryl esters (CE) quantification was based on the method described from Toshimi M, et al. Briefly, 25 μl of samples was mixed with 150 μl of free cholesterol decomposition reagent (45 U/ml catalase, 1 U/ml cholesterol oxidase) and incubated 2-4 h at 37° C., and then the final volume was brought up to 250 μl prior to determining free and total cholesterol remaining. Total cholesterol remaining was determined by mixing 50 μl of end product reaction with 50 μl of reagent A, as described above. Free cholesterol remaining was determined similarly, but without including cholesterol esterase in the reagent. CE was calculated by the formula CE=(TC−FC)×DF, where TC is the total cholesterol remaining, FC the free cholesterol remaining and DF the dilution factor, in this case, 10. Lipid content: Oil Red 0 staining was performed on frozen tissue sections and triglyceride content was determined on snap frozen kidney tissue as described above. The following experiment was performed to investigate which treatment, ezetimibe (EZ), ramipril (Ramp) or the combination of both drugs (EZ+Ramp), would best preserve renal function in Col4a3 knockout mice, all drugs were administered to 4-week-old Col4a3−/− mice for 4 weeks as follows: ezetimibe (Ez) was orally administered at a concentration of 5 mg/kg BW, ramipril was added to the drinking water at a concentration that would lead to a daily ramipril uptake of 10 mg/kg BW. All mice were sacrificed at 8 weeks of age. The following four groups of mice were analyzed: Col4a3^+/+, Col4a3^−/−+Ez, Col4a3^−/−+Ramp and Col4a3^−/−+Ez+Ramp.

[2] = cited from earlier work
[3] = cited from earlier work; remark: listed apart in the source
Col4a3−/− mice [4] = assay: Mesangial expansion (PAS) and renal fibrosis (Picrosirius Red) in Col4a3-/- mice (Example 3, FIG. 6); assay type: in vivo, mouse; conditions: treated vs untreated Col4a3−/− mice; ezetimibe 5 mg/kg, ramipril 10 mg/kg, 4 weeks
Description: Assessment of mesangial expansion: Periodic acid-Schiff (PAS) staining of 4 μm-thick tissue sections was performed using a standard protocol. Twenty glomeruli per section were analyzed for mesangial expansion by semi quantitative analysis (scale 0-4) performed by two blinded independent investigators.
Picrosirius red staining: Paraffin-embedded sections (4 μm thick) were deparaffinized with xylene and a graded alcohol series. Sections were rinsed for 5 min in distilled water, stained for 1 hour with picrosirius red in saturated aqueous picric acid, examined under a light microscope and photomicrographs were taken. Histological images were visualized using a light microscope (Olympus BX 41, Tokyo, Japan) at 40× magnification and analyzed using Image J software.
The following experiment was performed to investigate which treatment, ezetimibe (EZ), ramipril (Ramp) or the combination of both drugs (EZ+Ramp), would best preserve renal function in Col4a3 knockout mice, all drugs were administered to 4-week-old Col4a3−/− mice for 4 weeks as follows: ezetimibe (Ez) was orally administered at a concentration of 5 mg/kg BW, ramipril was added to the drinking water at a concentration that would lead to a daily ramipril uptake of 10 mg/kg BW. All mice were sacrificed at 8 weeks of age. The following four groups of mice were analyzed: Col4a3^+/+, Col4a3^−/−+Ez, Col4a3^−/−+Ramp and Col4a3^−/−+Ez+Ramp.
PAS staining was performed to detect and quantify mesangial expansion, Picrossirius Red staining to detect and quantify renal fibrosis in treated compared to untreated Col4a3^−/− mice. […] Representative images for PAS staining are shown in FIG. 6A and of Picrosirius Red staining to detect fibrosis in […]. Bar graph quantifications for both are shown in FIGS. 6C and 6D, respectively.

Col4a3−/− mice [5] = assay: Renal function in Col4a3-/- mice treated with ezetimibe, ramipril or both (Example 1, FIG. 5); assay type: in vivo, mouse
Excerpt: Albumin/creatinine ratio: All albuminuria values are expressed as μg albumin/mg creatinine. Albumin/creatinine determined by ELISA (Bethyl Laboratories) for albumin detection and a biochemical assay based on the Jaffe method for creatinine detection (Stanbio) as previously described. Serology: Immediately prior to sacrifice, a blood sample was collected for the determination of BUN and lipid panel analysis in the comparative laboratory core facility of the University of Miami. Serum creatinine was determined by tandem mass spectrometry (UAB-UCSD O'Brien Core Center, University of Alabama). The following experiment was performed to investigate which treatment, ezetimibe (EZ), ramipril (Ramp) or the combination of both drugs (EZ+Ramp), would best preserve renal function in Col4a3 knockout mice, all drugs were administered to 4-week-old Col4a3−/− mice for 4 weeks as follows: ezetimibe (Ez) was orally administered at a concentration of 5 mg/kg BW, ramipril was added to the drinking water at a concentration that would lead to a daily ramipril uptake of 10 mg/kg BW. All mice were sacrificed at 8 weeks of age. The following four groups of mice were analyzed: Col4a3^+/+, Col4a3^−/−+Ez, Col4a3^−/−+Ramp and Col4a3^−/−+Ez+Ramp.

DDR1 = target: T1, DDR1 (Homo sapiens, UniProt Q08345); assay: DDR1 activation in human podocytes treated with collagen (FIG. 2); assay type: cell-based
T1 construct: Differentiated human podocytes were serum starved for 16 hours followed by 18 hours treatment with 50 μg/mL collagen I; endogenous in cells; host or cells: conditionally immortalized human podocyte cell line (Saleem et al. 2002), differentiated
Description: (§1) Differentiated human podocytes were serum starved for 16 hours followed by 18 hours treatment with 50 μg/mL collagen I (Corning), collagen II (Discoverx), and collagen IV (Sigma Aldrich)
Isolation of plasma membranes: Preparation of membrane pellets was performed by ultracentrifugation of cell pellets suspended in homogenization media (15 mM KCl, 1.5 mM MgCl2, 10 mM HEPES, 1 mM DTT) supplemented with protease inhibitors. Effective separation was verified by WB for Na-K ATPase.

human podocytes = assay: Collagen treatment of human podocytes: lipid content and free fatty acid uptake (FIG. 1); assay type: cell-based
Description: as §1
Lipid content determination: Following collagen treatment, podocyte lipid content was assessed after fixation with PFA and staining with Bodipy 493/503 and Cell Mask Blue (Invitrogen). The Opera High Content Screening system and Acapella Image Analysis software was used to determine the number of Bodipy 493/503 positive lipid droplets per cell. Triglyceride content was assessed using the Triglyceride Quantification Kit (Cell Biolabs) following manufacturer instructions and normalizing to cell protein content using the BCA method.
Free fatty acid uptake was assessed using the fluorometric free fatty acid uptake Kit (Abcam) in Ctrl and Col I treated podocytes after 1 hour serum starvation. The uptake of FFA was analyzed using a fluorimeter (SpectraMax5, […]).

[6] = Col4a3−/− mice treated 4 weeks, ezetimibe 5 mg/kg, ramipril 10 mg/kg, vs untreated Col4a3−/−
[7] = Col4a3−/− mice, 4 weeks treatment

T1 sequence (Q08345 19-913): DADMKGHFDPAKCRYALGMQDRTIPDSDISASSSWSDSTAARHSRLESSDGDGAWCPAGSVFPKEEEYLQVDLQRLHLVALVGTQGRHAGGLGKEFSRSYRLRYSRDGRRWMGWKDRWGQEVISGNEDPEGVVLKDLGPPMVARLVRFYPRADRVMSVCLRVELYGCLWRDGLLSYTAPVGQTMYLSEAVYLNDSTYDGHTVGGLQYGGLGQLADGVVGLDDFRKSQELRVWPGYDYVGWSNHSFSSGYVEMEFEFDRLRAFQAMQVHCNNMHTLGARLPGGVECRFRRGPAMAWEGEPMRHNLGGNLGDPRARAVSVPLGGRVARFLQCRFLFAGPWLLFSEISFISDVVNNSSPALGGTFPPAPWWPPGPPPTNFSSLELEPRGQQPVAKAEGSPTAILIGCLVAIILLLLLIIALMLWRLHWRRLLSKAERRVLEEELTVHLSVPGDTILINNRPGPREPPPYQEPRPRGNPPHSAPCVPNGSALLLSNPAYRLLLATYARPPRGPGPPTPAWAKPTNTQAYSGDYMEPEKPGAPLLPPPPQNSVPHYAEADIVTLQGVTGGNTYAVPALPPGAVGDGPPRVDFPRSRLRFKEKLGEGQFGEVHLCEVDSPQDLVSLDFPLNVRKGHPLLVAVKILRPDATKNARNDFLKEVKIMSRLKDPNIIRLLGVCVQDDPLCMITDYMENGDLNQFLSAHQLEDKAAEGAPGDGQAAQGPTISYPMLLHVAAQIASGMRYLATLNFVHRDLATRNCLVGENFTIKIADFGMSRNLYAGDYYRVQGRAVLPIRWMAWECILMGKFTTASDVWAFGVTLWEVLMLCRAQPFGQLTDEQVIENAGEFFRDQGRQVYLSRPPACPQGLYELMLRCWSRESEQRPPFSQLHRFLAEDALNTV

CCOC(=O)[C@H](CCc1ccccc1)N[C@@H](C)C(=O)N1[C@H](C(=O)O)C[C@@H]2CCC[C@@H]21 [ramipril, (2S,3aS,6aS)-1[(S)—N—[(S)-1-Carboxy-3-phenylpropyl]alanyl]octahydrocyclop-enta[b]pyrrole-2-carboxylic acid, 1-ethyl ester]
esterified cholesterol (CE) content in kidney cortexes (Col4a3−/− mice [1]): reduces the esterified cholesterol content; also recorded: significantly decreased | triglyceride (TG) content in kidney cortexes (Col4a3−/− mice [1]): no effect on the Triglyceride content; also recorded: not observed | blood cholesterol levels ([2]; general knowledge stated in the patent): little or no effect | peripheral arterial resistance and blood pressure ([2]; hypertensive patients): reduction in blood pressure without a compensatory rise in heart rate | mortality ([2]; patients with clinical signs of congestive heart failure after surviving an acute myocardial infarction): reduce mortality | solubility in polar organic solvents and buffered aqueous solutions [3]: soluble | mesangial expansion (PAS staining, score) (Col4a3−/− mice [4]): significant reduction; also recorded: significantly reduced mesangial expansion | renal fibrosis (Picrosirius Red staining) (Col4a3−/− mice [4]): significant reduction; also recorded: significantly reduced | albumin/creatinine ratio (ACR) (Col4a3−/− mice [5]; 4-week-old Col4a3−/− mice treated 4 weeks, ezetimibe 5 mg/kg BW oral, ramipril 10 mg/kg BW in drinking water, vs untreated Col4a3−/−): significant reduction in the albumin/creatinine ratio; also recorded: significant decrease in the albumin/creatinine ratio | serum BUN levels (Col4a3−/− mice [5]; [6]): significant reduction in the serum BUN levels | serum creatinine levels (Col4a3−/− mice [5]; [6]): significant reduction in the serum creatinine levels | reduction of BUN levels, compared to ezetimibe alone (Col4a3−/− mice [5]; [7]): superior effect on reducing BUN levels | reduction of serum creatinine, compared to ezetimibe alone (Col4a3−/− mice [5]; [7]): superior effect on reducing serum creatinine levels

Col I: collagen I (Corning), 50 μg/mL, used to treat human podocytes
activation of DDR1 at the plasma membrane (DDR1; human podocytes, plasma membrane fraction): leads to activation of DDR1 | DDR1 activation (pDDR1) (DDR1; normal human podocytes): leads to DDR1 activation | cholesterol ester to total cholesterol ratio (human podocytes; Col I treated human podocytes): mildly decreased | esterified cholesterol content (human podocytes; Col I treated human podocytes): increased | total cholesterol content (human podocytes; Col I treated human podocytes): increased total cholesterol content | cellular triglyceride content (human podocytes; human podocytes after Col I treatment): increased | number of lipid droplets per cell (BODIPY) (human podocytes; human podocytes, 50 μg/mL collagen, 18 hours, vs Ctrl): increased lipid droplet content | free fatty acid uptake (human podocytes; human podocytes, collagen I treated vs Ctrl): increased
